{"source": "patent USRE38828E1", "about": "“Parevins and tachytegrins” (IntraBiotics Pharmaceuticals, Inc., priority 1995, dated 2005)", "key": {"VREF": {"system": "VREF", "format": "cell-based", "protocol": "(§1) The radial diffusion assay in agarose gels is conducted using radiodiffusion and gel overlay techniques as described by Lehrer, R. I. et al. J Immunol Meth (1991) 137:167-173. […] In some cases, the underlay was supplemented with 100 mM NaCl. The units of activity in the radial diffusion assay were measured as described; 10 units correspond to a 1 mm diameter clear zone around the sample well. FIGS. 1-6 show the results against five test organisms in units described as above. A synthetic protegrin (PG-1) containing two cystines (sPG-1) or PG-1 in linear form were used as controls.\n(§2) Several illustrative tachytegrins were synthesized as described in Example 1 and tested for activity against Staphylococcus aureus (MRSA), Pseudomonas (Psa), VREF, Candida and E. coli as described in Example 2. The results shown in Table 1 as minimal inhibitory concentration (MIC) in ug/ml were obtained with the C-terminal amidated forms except for the last two which were tested as the free acids, as indicated by *. In all peptides in Table 1, X is MeGly."}, "[1]": {"system": "Staphylococcus aureus (MRSA)", "format": "cell-based", "protocol": "as §1, §2"}, "Pseudomonas (Psa)": {"system": "Pseudomonas (Psa)", "experiment": "minimal inhibitory concentration, Pseudomonas", "format": "cell-based", "details": "C-terminal amidated forms except * (free acids)", "protocol": "as §1, §2"}, "[2]": {"system": "T. vaginallis strain C1 (ATCC 30001)", "experiment": "Trichomonas vaginalis motility, lysis and growth", "format": "cell-based, Trichomonas vaginallis", "protocol": "For Trichomonas vaginallis, strain C1 (ATCC 30001) is grown as described by Gorrell, T. E. et al., Carlsberg Res Comm (1984) 49:259-268. […] Soon thereafter, the organisms become permeable to trypan blue, and, over the ensuing 15-30 minutes, lyse. As expected, such organisms fail to grow when introduced into their customary growth medium (Diamond's medium)."}, "E. coli": {"system": "E. coli", "format": "cell-based", "protocol": "as §1, §2"}, "E. coli ML-35p": {"system": "E. coli ML-35p", "experiment": "radial diffusion assay in agarose gels, E. coli", "format": "cell-based", "protocol": "Media for testing antimicrobial activity are designed to mimic certain specific conditions. The standard buffer medium, medium A, uses an underlay agar with the following composition: 0.3 mg/ml of trypticase soy broth powder, 1% w/v agarose and 10 mM sodium phosphate buffer (final pH 7.4). This will be designated either “medium A” or “standard in vitro conditions” herein.\nA second medium contains 100 mM NaCl in order to mimic the salt levels in blood and tissue fluids. This will be designated “medium B” or “salt medium” herein.\nas §1"}, "[3]": {"details": "FIG. 1, E. coli, in the absence of salt"}, "[4]": {"details": "FIG. 1, E. coli, in the presence of 100 mM NaCl"}, "[5]": {"details": "FIG. 4, E. coli ML-35p, in the absence of salt"}, "[6]": {"details": "FIG. 4, E. coli ML-35p, in the presence of 100 mM NaCl"}}, "note": "Bridge positions count the residues as written; N and C are the ends. Square brackets hold non-standard residues; d marks the D form. Ends that are not written are not given here. Peptide text beside a SMILES is read from it. Sar = CNCC(=O)O", "data": [{"compound": "CC(C)C[C@@H]1NC(=O)[C@@H](NC(=O)[C@H](Cc2ccccc2)NC(=O)CNC(=O)[C@@H](N)CCCNC(=N)N)CSSC[C@@H](C(=O)N[C@H](C(=O)N[C@@H](CCCNC(=N)N)C(=O)O)C(C)C)NC(=O)[C@H](Cc2ccccc2)NC(=O)[C@H](CCCNC(=N)N)NC(=O)[C@H](C(C)C)NC(=O)CN(C)C(=O)[C@H](Cc2ccccc2)NC(=O)[C@H](CCCNC(=N)N)NC(=O)CNC(=O)[C@H](C(C)C)NC(=O)CN(C)C(=O)[C@H](Cc2ccc(O)cc2)NC(=O)[C@H](CCCNC(=N)N)NC1=O", "note": "[RGFCLRYXVGRFXVRFCVR] (H-RGFCLRY[Sar]VGRF[Sar]VRFCVR-OH; disulfide 4-17 (inferred); N-terminus assumed)", "values": [{"measurement": "minimal inhibitory concentration (MIC) VREF", "setting": "VREF", "value": 12, "unit": "µg/mL"}, {"measurement": "minimal inhibitory concentration (MIC) MRSA", "setting": "[1]", "value": ">32", "unit": "µg/mL"}]}, {"compound": "CC(C)C[C@@H]1NC(=O)[C@@H](NC(=O)CNC(=O)CNC(=O)[C@@H](N)CCCNC(=N)N)CSSC[C@@H](C(=O)N[C@@H](CCCNC(=N)N)C(N)=O)NC(=O)[C@H](C(C)C)NC(=O)[C@H](CCCNC(=N)N)NC(=O)[C@H](C(C)C)NC(=O)[C@H](C)NC(=O)[C@H](Cc2ccccc2)NC(=O)[C@H](CCCNC(=N)N)NC(=O)CN(C)C(=O)[C@H](CCCNC(=N)N)NC(=O)[C@H](C)NC(=O)[C@H](Cc2ccc(O)cc2)NC(=O)[C@H](CCCNC(=N)N)NC1=O", "note": "[RGGCLRYARXRFAVRVCR] (H-RGGCLRYAR[Sar]RFAVRVCR-NH2; disulfide 4-17 (inferred); N-terminus assumed)", "values": [{"measurement": "minimal inhibitory concentration (MIC) Paa", "setting": "Pseudomonas (Psa)", "value": 5.7, "unit": "µg/mL"}, {"measurement": "minimal inhibitory concentration (MIC) MRSA", "setting": "[1]", "value": ">32", "unit": "µg/mL"}]}, {"compound": "PG-1: protegrin PG-1 (RGGRLCYCRRRFCVCVGR; ends and bridges not checked; also: two disulfide bonds, pairing not given here; UniProt P32194 131-148, looked up)", "values": [{"measurement": "motility of T. vaginallis", "setting": "[2]; 50 ug/ml, RPMI+1% heat-activated fetal calf serum, within a few minutes after exposure", "value": "becomes stationary"}, {"measurement": "lysis of T. vaginallis", "setting": "[2]; 50 ug/ml, over the ensuing 15-30 minutes", "value": "lyse"}, {"measurement": "growth of exposed organisms in Diamond's medium", "setting": "[2]; after exposure to 50 ug/ml", "value": "fail to grow"}]}, {"compound": "CC(C)C[C@@H]1NC(=O)[C@@H](NC(=O)[C@H](Cc2ccccc2)NC(=O)CNC(=O)[C@@H](N)CCCNC(=N)N)CSSC[C@@H](C(=O)N[C@@H](CCCNC(=N)N)C(N)=O)NC(=O)[C@H](C(C)C)NC(=O)[C@H](Cc2ccccc2)NC(=O)[C@H](CCCNC(=N)N)NC(=O)[C@H](C(C)C)NC(=O)CN(C)C(=O)[C@H](Cc2ccccc2)NC(=O)[C@H](CCCNC(=N)N)NC(=O)CNC(=O)[C@H](C(C)C)NC(=O)CN(C)C(=O)[C@H](Cc2ccc(O)cc2)NC(=O)[C@H](CCCNC(=N)N)NC1=O", "note": "[RGFCLRYXVGRFXVRFVCR] (H-RGFCLRY[Sar]VGRF[Sar]VRFVCR-NH2; disulfide 4-18 (inferred); N-terminus assumed)", "values": [{"measurement": "minimal inhibitory concentration (MIC) MRSA", "setting": "[1]", "value": ">54", "unit": "µg/mL"}]}, {"compound": "PG-3: protegrin PG-3 (RGGGLCYCRRRFCVCVGR; ends and bridges not checked; cysteine pairing not given here; UniProt P32196 131-148, looked up)", "values": [{"measurement": "motility of T. vaginallis", "setting": "[2]; 25 ug/ml", "value": "retain their motility"}]}, {"compound": "CC(C)C[C@@H]1NC(=O)[C@@H](NC(=O)[C@H](Cc2ccccc2)NC(=O)CNC(=O)[C@@H](N)CCCNC(=N)N)CSSC[C@@H](C(=O)N[C@H](C(=O)N[C@@H](CCCNC(=N)N)C(N)=O)C(C)C)NC(=O)[C@H](Cc2ccccc2)NC(=O)[C@H](CCCNC(=N)N)NC(=O)[C@H](C(C)C)NC(=O)[C@H]([C@@H](C)O)NC(=O)[C@H](Cc2ccccc2)NC(=O)[C@H](CCCNC(=N)N)NC(=O)[C@@H]2CCCN2C(=O)[C@H](C(C)C)NC(=O)[C@H]([C@@H](C)O)NC(=O)[C@H](Cc2ccc(O)cc2)NC(=O)[C@H](CCCNC(=N)N)NC1=O", "note": "[RGFCLRYTVPRFTVRFCVR] (H-RGFCLRYTVPRFTVRFCVR-NH2; disulfide 4-17; N-terminus assumed)", "values": [{"measurement": "minimal inhibitory concentration (MIC) Paa", "setting": "Pseudomonas (Psa)", "value": 0.57, "unit": "µg/mL"}, {"measurement": "minimal inhibitory concentration (MIC) E. Coli", "setting": "E. coli", "value": 0.99, "unit": "µg/mL"}, {"measurement": "minimal inhibitory concentration (MIC) MRSA", "setting": "[1]", "value": 1.88, "unit": "µg/mL"}]}, {"compound": "trans-parevin: parevin with disulfide bridges C5-C16 and C8-C13 (RGGRCLYCRRRFCVVCGR; disulfide 8-13, 5-16)", "values": [{"measurement": "antibacterial activity, radial diffusion (effectiveness)", "setting": "E. coli ML-35p; [3]", "value": "slightly more effective than sPG-1 although slightly less effective than linear PG-1"}, {"measurement": "antibacterial activity, radial diffusion (effectiveness)", "setting": "E. coli ML-35p; [4]", "value": "comparably effective"}, {"measurement": "antibacterial activity, radial diffusion (effectiveness)", "setting": "E. coli ML-35p; [5]", "value": "comparably effective in the absence of salt and both were more effective than sPG-1"}, {"measurement": "antibacterial activity, radial diffusion (effectiveness)", "setting": "E. coli ML-35p; [6]", "value": "maintained their effectiveness and were comparable"}]}, {"compound": "tachytegrin: tachytegrin with disulfide bridges C4-C17 and C8-C13 (RGGCRLYCRRRFCVVGCR; disulfide 8-13, 4-17)", "values": [{"measurement": "antibacterial activity, radial diffusion (effectiveness)", "setting": "E. coli ML-35p; [3]", "value": "slightly more effective than sPG-1 although slightly less effective than linear PG-1"}, {"measurement": "antibacterial activity, radial diffusion (effectiveness)", "setting": "E. coli ML-35p; [4]", "value": "comparably effective"}]}, {"compound": "CC(C)C[C@@H]1NC(=O)[C@@H](NC(=O)CNC(=O)CNC(=O)[C@@H](N)CCCNC(=N)N)CSSC[C@@H](C(=O)N[C@@H](CCCNC(=N)N)C(=O)O)NC(=O)[C@H](C(C)C)NC(=O)[C@H](CCCNC(=N)N)NC(=O)[C@H](C(C)C)NC(=O)[C@H](C)NC(=O)[C@H](Cc2ccccc2)NC(=O)[C@H](CCCNC(=N)N)NC(=O)CNC(=O)[C@H](C(C)C)NC(=O)[C@H](C)NC(=O)[C@H](Cc2ccc(O)cc2)NC(=O)[C@H](CCCNC(=N)N)NC1=O", "note": "[RGGCLRYAVGRFAVRVCR] (H-RGGCLRYAVGRFAVRVCR-OH; disulfide 4-17; N-terminus assumed)", "values": [{"measurement": "minimal inhibitory concentration (MIC) VREF", "setting": "VREF", "value": 5.3, "unit": "µg/mL"}, {"measurement": "minimal inhibitory concentration (MIC) MRSA", "setting": "[1]", "value": ">32", "unit": "µg/mL"}]}, {"compound": "cis-parevin: parevin with disulfide bridges C5-C8 and C13-C16 (RGGRCLYCRRRFCIVCG; disulfide 13-16, 5-8)", "values": [{"measurement": "antibacterial activity, radial diffusion (effectiveness)", "setting": "E. coli ML-35p; [5]", "value": "comparably effective in the absence of salt and both were more effective than sPG-1"}, {"measurement": "antibacterial activity, radial diffusion (effectiveness)", "setting": "E. coli ML-35p; [6]", "value": "maintained their effectiveness and were comparable"}]}, {"compound": "CC(C)C[C@@H]1NC(=O)[C@@H](NC(=O)CNC(=O)CNC(=O)[C@@H](N)CCCNC(=N)N)CSSC[C@@H](C(=O)N[C@@H](CCCNC(=N)N)C(N)=O)NC(=O)[C@H](C(C)C)NC(=O)[C@H](CCCNC(=N)N)NC(=O)[C@H](C(C)C)NC(=O)[C@H](C)NC(=O)[C@H](Cc2ccccc2)NC(=O)[C@H](CCCNC(=N)N)NC(=O)[C@@H]2CCCN2C(=O)[C@H](C(C)C)NC(=O)[C@H](C)NC(=O)[C@H](Cc2ccc(O)cc2)NC(=O)[C@H](CCCNC(=N)N)NC1=O", "note": "[RGGCLRYAVPRFAVRVCR] (H-RGGCLRYAVPRFAVRVCR-NH2; disulfide 4-17; N-terminus assumed)", "values": [{"measurement": "minimal inhibitory concentration (MIC) Paa", "setting": "Pseudomonas (Psa)", "value": 0.05, "unit": "µg/mL"}, {"measurement": "minimal inhibitory concentration (MIC) MRSA", "setting": "[1]", "value": ">128", "unit": "µg/mL"}]}]}
